IC50 data for 24 compounds are collected here from patent publication US20190119282A1, “IMIDAZOPYRIDAZINES USEFUL AS INHIBITORS OF THE PAR-2 SIGNALING PATHWAY” (Vertex Pharmaceuticals Incorporated, priority 2013, published 2019).

Test [1] has as its system Thrombin-stimulated Ca2+ response in HT-29 cells. Put plainly: Ca FLIPR TETRA assay, ANTAGONIST mode, stimulation with 1 U/mL Thrombin. The test is classed as cell-based, human. The following applies: Homo sapiens; HT-29 cells, antagonist mode, stimulation with 1 U/mL Thrombin. The gist of the method:
(§1)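 Cells plated overnight at 37 °C, 5% CO2 in 1% FBS medium; dye loading 45 min at 37 °C then 15 min r.t.; compound added from DMSO/HBSS dilution; first read for intrinsic Ca2+ activation; 30 min r.t. incubation; antagonist read after addition of the fixed activator (8 μM SLIGKV, 1 U/mL thrombin, 3.1 U/mL trypsin or 0.6 μM UTP).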

Test [2] deals with T1, PAR2 (HT-29 cells, trypsin activation) (Homo sapiens, UniProt P55085).
T1 construct: host or cells: HT-29 cells
T1 sequence (P55085 26-397): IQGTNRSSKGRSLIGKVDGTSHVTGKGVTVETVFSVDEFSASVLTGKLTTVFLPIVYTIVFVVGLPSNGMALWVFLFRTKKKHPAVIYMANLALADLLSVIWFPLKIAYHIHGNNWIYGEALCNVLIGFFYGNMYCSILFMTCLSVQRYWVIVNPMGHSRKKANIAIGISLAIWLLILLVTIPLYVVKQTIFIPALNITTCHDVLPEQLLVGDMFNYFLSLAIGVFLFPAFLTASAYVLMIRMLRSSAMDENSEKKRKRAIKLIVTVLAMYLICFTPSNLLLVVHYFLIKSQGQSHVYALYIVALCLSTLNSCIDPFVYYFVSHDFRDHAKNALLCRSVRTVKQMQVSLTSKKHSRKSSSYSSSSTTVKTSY
Put plainly: Ca FLIPR TETRA assay, ANTAGONIST mode, stimulation with 3.1 U/mL trypsin. The following applies: HT-29 cells, antagonist mode, stimulation with 3.1 U/mL trypsin. The test is classed as cell-based. The method, boiled down: as §1

The test system of test [3] is UTP-stimulated Ca2+ response in HT-29 cells. Put plainly: Ca FLIPR TETRA assay, ANTAGONIST mode, stimulation with 0.6 μM UTP. The following applies: Homo sapiens; HT-29 cells, antagonist mode, stimulation with 0.6 μM UTP. Format: cell-based, human. The method, boiled down:
as §1

Test [4] addresses T2, PAR2 (HT-29 cells, SLIGKV activation) (Homo sapiens, UniProt P55085).
T2 construct: host or cells: HT-29 cells
T2 sequence (P55085 26-397): T1 sequence (P55085 26-397)
Briefly: Ca FLIPR TETRA assay, ANTAGONIST mode, stimulation with 8 μM SLIGKV. The test is classed as cell-based. Conditions: HT-29 cells, antagonist mode, stimulation with 8 μM SLIGKV. The gist of the method: as §1

As usually defined, the IC50 is the concentration that gives 50% inhibition.

In the case of `CC(C)(C)c1cc(-c2ccc(F)cc2)nn2cc(C(=O)N3CCN(C(=O)[C@H]4CC[C@@H](C(=O)O)CC4)CC3(C)C)nc12` [Compound I-493, (1S,4S)-4-(4-(8-(tert-butyl)-6-(4-fluorophenyl)imidazo[1,2-b]pyridazine-2-carbonyl)-3,3-dimethylpiperazine-1-carbonyl)cyclohexane-1-carboxylic acid], the half-inhibitory concentration (IC50) stood at 760 nM in test [1], 0.5 nM in test [2], 440 nM in test [3] and 0.5 nM in test [4].

Regarding `CC(C)(C)c1cc(-c2ccc(F)cc2)nn2cc(C(=O)N3CCN(C(=O)[C@H]4CC[C@H](C(=O)O)CC4)CC3(C)C)nc12` [Compound I-494, (1R,4R)-4-(4-(8-(tert-butyl)-6-(4-fluorophenyl)imidazo[1,2-b]pyridazine-2-carbonyl)-3,3-dimethylpiperazine-1-carbonyl)cyclohexane-1-carboxylic acid], the IC50 was above 1000 nM in test [1], 13.9 nM in test [2], above 1000 nM in test [3] and 12.4 nM in test [4].

`CC(C)c1cc(-c2ccc(F)c(Cl)c2)nn2cc(C(=O)N3CCN(C(=O)[C@H]4CC[C@@H](C(=O)O)CC4)CC3(C)C)nc12` [Compound I-495]: the IC50 in test [1] came to 21500 nM; in test [2] it was 5 nM; in test [3] it was 11100 nM; in test [4], 4.1 nM.

Consider `CC(C)c1cc(-c2ccc(F)c(Cl)c2)nn2cc(C(=O)N3CCN(C(=O)[C@H]4CC[C@H](C(=O)O)CC4)CC3(C)C)nc12` [Compound I-496], for which the IC50 in test [1] is above 1000 nM; in test [2], 101 nM; in test [3], above 1000 nM; in test [4], 55.3 nM.

Take `CC(C)c1cc(-c2ccc(F)c(Cl)c2)nn2cc(C(=O)N3CCNCC3(C)C)nc12` [Compound I-497]: the IC50 in test [1] was above 1000 nM; in test [2], 270 nM; in test [3], above 1000 nM; in test [4], 405 nM.

Take `CC(C)c1cc(-c2ccc(F)c(Cl)c2)nn2cc(C(=O)N3CCN(C(=O)[C@H]4C[C@@H](O)C4)CC3(C)C)nc12` [Compound I-498]: the IC50 in test [1] was above 1000 nM; in test [2], 7.4 nM; in test [3] it was above 1000 nM; in test [4] it was 5.6 nM.

As for `COC1CC(C(=O)N2CCN(C(=O)c3cn4nc(-c5ccc(F)c(Cl)c5)cc(C(C)C)c4n3)C(C)(C)C2)C1` (stereo not drawn) [Compound I-499], the IC50 in test [1] was above 1000 nM; in test [2], 9.6 nM; in test [3], above 1000 nM; in test [4], 8.3 nM.

On to `CC(C)c1cc(-c2ccc(F)c(Cl)c2)nn2cc(C(=O)N3CCN(C(=O)[C@H]4C[C@](O)(C(F)(F)F)C4)CC3(C)C)nc12` [Compound I-500], for which the 50% inhibitory concentration (IC50) was above 1000 nM in test [1], 0.4 nM in test [2], above 1000 nM in test [3] and 0.3 nM in test [4].

On to `CC(C)c1cc(-c2ccc(F)c(Cl)c2)nn2cc(C(=O)N3CCN(C(=O)[C@H]4C[C@H](C(=O)O)C4)CC3(C)C)nc12` [Compound I-501], for which the IC50 in test [1] is above 1000 nM; in test [2], 59.5 nM; in test [3], above 1000 nM; in test [4], 51 nM.

On to `CC(C)c1cc(-c2ccc(F)c(Cl)c2)nn2cc(C(=O)N3CCN(C(=O)[C@H]4C[C@@H](C(=O)O)C4)CC3(C)C)nc12` [Compound I-502], for which the IC50 was above 1000 nM in test [1], 20 nM in test [2], above 1000 nM in test [3] and 21 nM in test [4].

Take `COC(=O)CN1CCN(C(=O)c2cn3nc(-c4ccc(F)cc4)cc(C(C)(C)C)c3n2)C(C)(C)C1=O` [Compound I-503]: the IC50 in test [1] was above 1000 nM; in test [2], 4.6 nM; in test [3], above 1000 nM; in test [4], 3.9 nM.

Regarding `Cc1nc(C(=O)N2CCN(C(=O)c3cn4nc(-c5ccc(F)c(Br)c5)cc(C(C)(C)C)c4n3)C(C)(C)C2)n[nH]1` [Compound I-504], the IC50 is above 1000 nM in test [1], 1.5 nM in test [2], 460 nM in test [3] and 1.2 nM in test [4].

As for `CC(C)c1cc(-c2ccc(F)c(Cl)c2)nn2cc(C(=O)N3CCN(C(=O)[C@H]4C[C@H](O)C4)CC3(C)C)nc12` [Compound I-505], the IC50 is above 1000 nM in test [1], 23 nM in test [2], above 1000 nM in test [3] and 12 nM in test [4].

Regarding `CC(C)(C)c1cc(C2CCC(F)(F)CC2)nn2cc(C(=O)N3CCN(C(=O)[C@H]4CC[C@H](C(=O)O)CC4)CC3(C)C)nc12` [Compound I-506], the half-maximal inhibitory concentration (IC50) in test [1] is above 1000 nM; in test [2], 163 nM; in test [3], above 1000 nM; in test [4], 107 nM.

Regarding `Cc1cc(-c2cc(C(C)C)c3nc(C(=O)N4CCNC(=O)C4(C)C)cn3n2)ccc1Cl` [Compound I-507], the IC50 in test [1] was above 1000 nM; in test [2], 4.9 nM; in test [3] it was above 1000 nM; in test [4], 3.1 nM.

As to `Cc1ccc(-c2cc(C(C)C)c3nc(C(=O)N4CCNC(=O)C4(C)C)cn3n2)cc1Cl` [Compound I-508], the IC50 in test [1] was above 1000 nM; in test [2] it was 4.1 nM; in test [3], above 1000 nM; in test [4], 4.7 nM.

For the compound `COC(=O)CC1(C)C(=O)NCCN1C(=O)c1cn2nc(-c3ccc(F)cc3)cc(C(C)(C)C)c2n1` (stereo not drawn) [Compound I-509], the IC50 in test [1] was above 1000 nM; in test [2], 170 nM; in test [3] it was above 1000 nM; in test [4] it was 82.5 nM.

Consider `CC(C)(C)c1cc(-c2ccc(F)cc2)nn2cc(C(=O)N3CCOC(=O)C3(C)C)nc12` [Compound I-510], for which the IC50 in test [1] was above 1000 nM; in test [2], 8.8 nM; in test [3], above 1000 nM; in test [4], 6.8 nM.

Take `CC(C)c1cc(-c2ccc(F)cc2)nn2cc(C(=O)N3CCOC(=O)C3(C)C)nc12` [Compound I-511]: the half-maximal inhibitory concentration (IC50) is above 1000 nM in test [1], 87 nM in test [2], above 1000 nM in test [3] and 23 nM in test [4].

On to `CC(=O)N1CCN(C(=O)c2cn3nc(-c4ccc(F)cc4)cc(C(C)C)c3n2)C(C)(C)C1` [Compound I-512], for which the IC50 was above 1000 nM in test [1], 53 nM in test [2], above 1000 nM in test [3] and 23.5 nM in test [4].

`CC(=O)N1CCN(C(=O)c2cn3nc(-c4ccc(F)cc4)cc(C(C)(C)C)c3n2)C(C)(C)C1` [Compound I-513]: the IC50 in test [1] is above 1000 nM; in test [2], 3 nM; in test [3], above 1000 nM; in test [4], 1.8 nM.

Turning to `CC1(C)C(=O)OCCN1C(=O)c1cn2nc(-c3ccc(F)cc3)cc(C(F)(F)F)c2n1` [Compound I-514], the IC50 is above 1000 nM in test [1], 315 nM in test [2], above 1000 nM in test [3] and 160 nM in test [4].

Take `CC(C)(C)c1cc(C2CCC(F)(F)CC2)nn2cc(C(=O)N3CCN(C(=O)[C@H]4C[C@H](C(=O)O)C4)CC3(C)C)nc12` [Compound I-515]: the IC50 in test [1] was above 1000 nM; in test [2], 110 nM; in test [3] it was above 1000 nM; in test [4], 62.5 nM.

`CC(C)(C)c1cc(C2CCC(F)(F)CC2)nn2cc(C(=O)N3CCN(C(=O)[C@H]4C[C@@H](C(=O)O)C4)CC3(C)C)nc12` [Compound I-516]: the IC50 in test [1] is above 1000 nM; in test [2], 92 nM; in test [3], above 1000 nM; in test [4], 39.5 nM.
